Results on one molecule are retold here after US8987338B2, “Active ingredient of a medicinal agent, a medicinal agent, a pharmaceutical composition and method for treating dementia syndrome patients” (priority 2007, dated 2015).

The test system of test [1] is patients with Parkinson's syndrome. The test is described as follows: Clinical trial: unified scale for evaluation of Parkinsonism. Format: in vivo, human. The note with it: 3 months of treatment. On the procedure:
The efficacy of the treatment of Alzheimer-type dementias with marked intellectual-mnestic memory loss with polyprenols of formula (1) and a comparison of the efficacy of Ropren and Gliatilin was studied in patients during a 3-month course of treatment. Treatment efficacy on various functions before and after the treatment was assessed using the international scale MMSE ((evaluation of mental status—Mini-Mental State Examination, MMSE) Folstcin et al, 1975), “list with symptoms” questionnaire, unified scale for evaluation of Parkinsonism, EEG data, and biochemical parameters of the blood.
After treatment with Ropren, the Parkinson's syndrome decreased (on average by 5 points) in almost all patients, i.e., in 23 out of 25 patients or in 92%. This positive effect was found as early as 1 month after commencement of Ropren therapy. In the case of Gliatilin, improvement of Parkinson's syndrome was less pronounced (on average by 3 points) using the Parkinsonism rating scale.

The test system of test [2] is patients with vascular dementia of the Alzheimer's type. Kind of test: Clinical trial: electroencephalography (EEG) before and after therapy. The settings on record: before vs after treatment (about 3 months), individual patients or group. Format: in vivo, human.
Method: MMSE scale (parameter of evaluation of intellectually-mnestic functions of a patient before and after treatment) was used for the evaluation of intellect. […] Electroencephalography (EEG) was performed in 12 patients (48%) before and after the Ropren therapy.

Consider `C[N+](C)(C)CCOP(=O)([O-])OC[C@H](O)CO` [Gliatilin, choline alfoscerate], for which the “average decrease of Parkinson's syndrome on Parkinsonism rating scale” value in test [1] amounted to 3 points. Besides, the “Changes in EEG” value in test [2] is “No changes”.
